The values below come from ChEMBL document CHEMBL6087428, “Discovery of potent and selective factor XIa inhibitors incorporating triazole-based benzoic acid as novel P2' fragments: Molecular dynamics simulations and anticoagulant activity” (Eur J Med Chem, 2025).

Test [1] deals with Plasma kallikrein (Homo sapiens, UniProt P03952). In words: Inhibition of human PKa using H-Pro-Phe-Arg-AMC as substrate incubated for 15 mins by fluorescence reader analysis.
The target of test [2] is Trypsin (Homo sapiens, UniProt P07477+P07478+P35030). In words: Inhibition of human trypsin using Boc-Ile-Glu-Gly-Arg-AMC as substrate incubated for 15 mins by fluorescence reader analysis. The format is protein assay.
Test [3] deals with Coagulation factor X (Homo sapiens, UniProt P00742). In words: Inhibition of human Factor Xa using Boc-Ile-Glu-Gly-Arg-AMC as substrate incubated for 15 mins by fluorescence reader analysis.
Test [4] deals with Plasma. The experiment in a line: Anticoagulant activity in citrated human pooled plasma assessed as prolongation of activated partial thromboplastin time incubated for 5 mins by aPTT reagent based semi-automated coagulometric analysis. Format: functional.
Test [5] has as its target Coagulation factor XI (Homo sapiens, UniProt P03951). In words: Inhibition of human Factor XIa using Boc-Glu(OBzl)-Ala-Arg-AMC assessed as AMC release preincubated for 15 mins followed by substrate addition and measured after 10 mins by microplate fluorescence reader analysis.
Test [6] concerns Plasma. In words: Anticoagulant activity in citrated human pooled plasma assessed as prolongation of prothrombin time incubated for 3 mins by PT reagent based semi-automated coagulometric analysis. The format is functional. The settings on record: 0.05 h.
The target of test [7] is Prothrombin (Homo sapiens, UniProt P00734). In words: Inhibition of human thrombin using Boc-Asp(OBzl)-Pro-Arg-AMC as substrate incubated for 15 mins by fluorescence reader analysis.

Coagulation factor X, sequence (P00742 41-179 limits assumed): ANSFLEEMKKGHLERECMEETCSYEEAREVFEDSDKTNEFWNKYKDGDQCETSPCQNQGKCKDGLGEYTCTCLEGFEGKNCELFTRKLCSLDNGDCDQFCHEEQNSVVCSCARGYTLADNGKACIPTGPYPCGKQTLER
Coagulation factor X, sequence (P00742 235-488 limits assumed): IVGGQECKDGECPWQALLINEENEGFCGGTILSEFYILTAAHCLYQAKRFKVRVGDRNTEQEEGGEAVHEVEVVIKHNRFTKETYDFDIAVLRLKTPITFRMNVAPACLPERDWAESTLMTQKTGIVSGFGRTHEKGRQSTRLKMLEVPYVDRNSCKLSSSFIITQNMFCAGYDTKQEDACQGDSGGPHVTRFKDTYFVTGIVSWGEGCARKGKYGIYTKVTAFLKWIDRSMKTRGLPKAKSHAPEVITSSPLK
Coagulation factor XI, sequence (P03951 19-387 limits assumed): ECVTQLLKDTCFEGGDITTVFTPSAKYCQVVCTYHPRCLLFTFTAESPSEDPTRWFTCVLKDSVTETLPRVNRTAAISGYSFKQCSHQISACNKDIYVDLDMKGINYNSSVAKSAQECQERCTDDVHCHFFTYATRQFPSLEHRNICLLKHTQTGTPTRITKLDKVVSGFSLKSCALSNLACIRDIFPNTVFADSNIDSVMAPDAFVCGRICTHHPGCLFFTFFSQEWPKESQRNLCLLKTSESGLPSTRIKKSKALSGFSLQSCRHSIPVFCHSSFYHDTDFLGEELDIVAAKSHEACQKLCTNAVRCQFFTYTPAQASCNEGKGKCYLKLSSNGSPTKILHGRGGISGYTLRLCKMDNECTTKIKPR
Coagulation factor XI, sequence (P03951 388-625 limits assumed): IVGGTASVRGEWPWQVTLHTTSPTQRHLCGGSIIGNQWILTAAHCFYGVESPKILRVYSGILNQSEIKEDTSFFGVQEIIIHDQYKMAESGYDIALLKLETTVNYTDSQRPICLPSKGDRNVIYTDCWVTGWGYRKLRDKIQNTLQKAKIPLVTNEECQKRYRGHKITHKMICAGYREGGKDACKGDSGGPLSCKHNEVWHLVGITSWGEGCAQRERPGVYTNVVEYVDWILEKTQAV
Plasma kallikrein, sequence (P03952 20-390 limits assumed): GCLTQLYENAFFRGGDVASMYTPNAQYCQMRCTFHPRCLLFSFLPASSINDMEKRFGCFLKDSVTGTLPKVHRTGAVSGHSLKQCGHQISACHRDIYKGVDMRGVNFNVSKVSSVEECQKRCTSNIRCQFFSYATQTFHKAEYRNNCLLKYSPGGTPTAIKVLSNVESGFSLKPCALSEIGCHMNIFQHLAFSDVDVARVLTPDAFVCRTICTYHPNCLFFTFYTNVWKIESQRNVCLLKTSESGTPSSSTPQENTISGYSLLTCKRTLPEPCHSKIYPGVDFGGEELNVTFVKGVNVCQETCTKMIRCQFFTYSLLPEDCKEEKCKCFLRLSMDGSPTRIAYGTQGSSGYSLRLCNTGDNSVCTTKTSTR
Plasma kallikrein, sequence (P03952 391-638 limits assumed): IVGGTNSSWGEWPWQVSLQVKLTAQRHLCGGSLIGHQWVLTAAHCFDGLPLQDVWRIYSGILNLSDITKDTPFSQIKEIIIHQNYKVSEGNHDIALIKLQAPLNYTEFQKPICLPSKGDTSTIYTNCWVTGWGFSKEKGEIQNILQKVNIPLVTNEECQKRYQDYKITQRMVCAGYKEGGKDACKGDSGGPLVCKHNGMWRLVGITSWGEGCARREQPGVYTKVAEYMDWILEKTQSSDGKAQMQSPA

As to `CCC(c1cn(-c2ccc(C(=O)O)cc2)nn1)n1cc(OC)c(-c2cc(Cl)ccc2-n2cc(Cl)nn2)cc1=O` (centres undefined), the IC50 – broadly, the concentration that inhibits the measured activity by half – stood at 0.655 µM in test [1], 93.1 µM in test [2], 17.4 µM in test [3] and 0.0845 µM in test [5]. The EC1.5 in test [4] is 25.4 µM. The EC2 in test [6] is above 100 µM.
With `COc1ccc(-n2cc(Cn3cc(OC)c(-c4cc(Cl)ccc4-n4cc(Cl)nn4)cc3=O)nn2)c(C)n1`, the half-maximal inhibitory concentration (IC50) in test [1] worked out at 15.8 µM; in test [5], 0.917 µM.
The corresponding values for `COc1cn(C(Cc2ccccc2)c2cn(-c3ccccc3)nn2)c(=O)cc1-c1cc(Cl)ccc1-n1cc(C(F)(F)F)nn1` (centres undefined) are 0.746 µM and 0.0309 µM.
As to `COc1cn(C(Cc2ccccc2)c2cn(-c3cn[nH]c3)nn2)c(=O)cc1-c1cc(Cl)ccc1-n1cc(Cl)nn1` (centres undefined), the half-inhibitory concentration (IC50) was determined as 0.683 µM in test [1] and 0.0214 µM in test [5]. Also, the EC1.5 in test [4] is 2.64 µM. For the same compound, the EC2 in test [6] is above 100 µM.
As to `COc1cn(Cc2cn(-c3ccc(C(=O)O)cc3)nn2)c(=O)cc1-c1cc(Cl)ccc1-n1cc(Cl)nn1`, the figures for the IC50 in test [1] and in test [5] were 0.832 µM and 0.0387 µM, respectively.
The corresponding values for `CCC(c1cn(-c2cn[nH]c2)nn1)n1cc(OC)c(-c2cc(Cl)ccc2-n2cc(Cl)nn2)cc1=O` (centres undefined) are 2.51 µM and 0.379 µM.
As for `COc1cn(C(Cc2ccccc2)c2cn(-c3ccccc3)nn2)c(=O)cc1-c1cc(Cl)ccc1-n1cc(Cl)nn1` (centres undefined), the half-inhibitory concentration (IC50) in test [1] was found to be 0.501 µM; in test [5] it was 0.0309 µM.
The corresponding values for `COC(=O)c1ncccc1-n1cc(Cn2cc(OC)c(-c3cc(Cl)ccc3-n3cc(Cl)nn3)cc2=O)nn1` are 19.7 µM and 2 µM.
The corresponding values for `COc1cn(Cc2cn(-c3ccccc3)nn2)c(=O)cc1-c1cc(Cl)ccc1-n1cc(Cl)nn1` are 0.766 µM and 0.0781 µM.
The corresponding values for `CCC(c1cn(-c2cnn(C(F)F)c2)nn1)n1cc(OC)c(-c2cc(Cl)ccc2-n2cc(Cl)nn2)cc1=O` (centres undefined) are 8.13 µM and 1.33 µM.
For `CCC(c1cn(-c2ccccc2)nn1)n1cnc(-c2cc(Cl)ccc2-n2cc(Cl)nn2)cc1=O` (centres undefined), the IC50 in test [1] was 47.2 µM; in test [5] it was 6.34 µM.
The corresponding values for `COc1cn(Cc2cn(-c3cccc(C(=O)O)c3)nn2)c(=O)cc1-c1cc(Cl)ccc1-n1cc(Cl)nn1` are 0.412 µM and 0.0787 µM.
The corresponding values for `COC(=O)c1ccc(-n2cc(C(Cc3ccccc3)n3cc(OC)c(-c4cc(Cl)ccc4-n4cc(C(F)(F)F)nn4)cc3=O)nn2)cc1` (centres undefined) are 0.643 µM and 0.0383 µM.
The corresponding values for `COc1cn(Cc2cn(-c3cccnc3C(=O)O)nn2)c(=O)cc1-c1cc(Cl)ccc1-n1cc(Cl)nn1` are 6.8 µM and 0.379 µM.
`CCC(c1cn(-c2cnn(C)c2)nn1)n1cc(OC)c(-c2cc(Cl)ccc2-n2cc(Cl)nn2)cc1=O` (centres undefined): the IC50 in test [1] was found to be 6.52 µM; in test [5] it was 0.609 µM.
Regarding `CCC(c1cn(-c2ccccc2C(=O)O)nn1)n1cc(OC)c(-c2cc(Cl)ccc2-n2cc(Cl)nn2)cc1=O` (centres undefined), the half-maximal inhibitory concentration (IC50) came out at 9.8 µM in test [1] and 0.497 µM in test [5].
The corresponding values for `COC(=O)c1ccccc1-n1cc(Cn2cc(OC)c(-c3cc(Cl)ccc3-n3cc(Cl)nn3)cc2=O)nn1` are 11.5 µM and 1.66 µM.
As to `COc1cn([C@H](Cc2ccccc2)c2cn(-c3ccc(C(=O)O)cc3)nn2)c(=O)cc1-c1cc(Cl)ccc1-n1cc(C(F)(F)F)nn1`, the half-maximal inhibitory concentration (IC50) in test [7] is above 33 µM; in test [1] it was 2.75 µM; in test [2], 88.2 µM; in test [3] it was above 33 µM; in test [5] it was 0.102 µM. Further, in test [4], the EC1.5 was found to be 26.9 µM. Moreover, in test [6], the EC2 is above 100 µM.
For `COc1cn(C(Cc2ccccc2)c2cn(-c3ccc(C(=O)O)cc3)nn2)c(=O)cc1-c1cc(Cl)ccc1-n1cc(C(F)(F)F)nn1` (centres undefined), the IC50 in test [7] came to 53.7 µM; in test [1], 0.112 µM; in test [2], 14.2 µM; in test [3], 41.2 µM; in test [5] it was 0.00131 µM. Also, the EC1.5 in test [4] turned out to be 0.81 µM. For the same compound, in test [6], the EC2 is above 100 µM.
As for `COc1cn(Cc2cn(-c3cc(Br)cnc3C#N)nn2)c(=O)cc1-c1cc(Cl)ccc1-n1cc(Cl)nn1`, the IC50 in test [1] stood at 14.2 µM; in test [5], 2 µM.
Consider `COc1cn([C@H](Cc2ccccc2)c2cn(-c3ccc(C(=O)O)cc3)nn2)c(=O)cc1-c1cc(Cl)ccc1-n1cc(Cl)nn1`, for which the IC50 in test [7] is 46.9 µM; in test [1], 1.87 µM; in test [2], above 100 µM; in test [3], above 100 µM; in test [5], 0.0963 µM. In test [4], the EC1.5 is 29 µM. Moreover, the EC2 in test [6] was above 100 µM.
On to `COc1cn(C(Cc2ccccc2)c2cn(-c3cn[nH]c3)nn2)c(=O)cc1-c1cc(Cl)ccc1-n1cc(C(F)(F)F)nn1` (centres undefined), for which the results for the half-inhibitory concentration (IC50) in test [1] and in test [5] were 0.9 µM and 0.0232 µM, respectively. Further, the EC1.5 in test [4] came out at 1.57 µM. For the same compound, the EC2 in test [6] is above 100 µM.
As for `COc1cn(Cc2cn(-c3ccc(Cl)nc3C#N)nn2)c(=O)cc1-c1cc(Cl)ccc1-n1cc(Cl)nn1`, the IC50 came to 15.8 µM in test [1] and 1.09 µM in test [5].
As to `COC(=O)c1ccc(-n2cc(C(Cc3ccccc3)n3cc(OC)c(-c4cc(Cl)ccc4-n4cc(Cl)nn4)cc3=O)nn2)cc1` (centres undefined), the IC50 in test [1] worked out at 0.522 µM; in test [5] it was 0.027 µM.
For the compound `COc1cn(Cc2cn(-c3cnn(C)c3)nn2)c(=O)cc1-c1cc(Cl)ccc1-n1cc(Cl)nn1`, the IC50 in test [1] stood at 3.74 µM; in test [5], 0.288 µM.
Take `CC[C@@H](c1cn(-c2ccc(C(=O)OC)cc2)nn1)n1cc(OC)c(-c2cc(Cl)ccc2-n2cc(Cl)nn2)cc1=O`: the half-inhibitory concentration (IC50) worked out at 67.7 µM in test [7]; 0.643 µM in test [1]; 82.9 µM in test [2]; 4.2 µM in test [3]; 0.032 µM in test [5]. Also, the EC1.5 in test [4] is 13.2 µM. In test [6], the EC2 is above 100 µM.
With `COc1cn(Cc2cn(-c3ccccc3C(=O)O)nn2)c(=O)cc1-c1cc(Cl)ccc1-n1cc(Cl)nn1`, the IC50 in test [1] is 11.6 µM; in test [5], 0.272 µM.
The corresponding values for `COc1cn(Cc2cn(-c3cccnc3C)nn2)c(=O)cc1-c1cc(Cl)ccc1-n1cc(Cl)nn1` are 14.4 µM and 1.24 µM.
The corresponding values for `COc1cn(Cc2cn(-c3ccc(Cl)nc3C)nn2)c(=O)cc1-c1cc(Cl)ccc1-n1cc(Cl)nn1` are 11.1 µM and 1.02 µM.
With `COc1cn(C(Cc2ccccc2)c2cn(-c3ccc(C(=O)O)cc3)nn2)c(=O)cc1-c1cc(Cl)ccc1-n1cc(Cl)nn1` (centres undefined), the IC50 was 42 µM in test [7]; 0.141 µM in test [1]; 26.1 µM in test [2]; 48.2 µM in test [3]; 0.00226 µM in test [5]. Further, in test [4], the EC1.5 was 1.41 µM. Further, the EC2 in test [6] was above 100 µM.
Take `CCC(c1cn(-c2ccccc2C(=O)OC)nn1)n1cc(OC)c(-c2cc(Cl)ccc2-n2cc(Cl)nn2)cc1=O` (centres undefined): the IC50 in test [1] is 4.84 µM; in test [5] it was 1.96 µM.
Take `CCC(c1cn(-c2ccc(C(=O)OC)cc2)nn1)n1cc(OC)c(-c2cc(Cl)ccc2-n2cc(Cl)nn2)cc1=O` (centres undefined): the concentration for half-maximal inhibition (IC50) in test [1] came to 1.49 µM; in test [5], 0.373 µM.
The corresponding values for `CCC(c1cn(-c2cn[nH]c2)nn1)n1cnc(-c2cc(Cl)ccc2-n2cc(Cl)nn2)cc1=O` (centres undefined) are 23.4 µM and 6.55 µM.
The corresponding values for `COc1cn(Cc2cn(-c3cn[nH]c3)nn2)c(=O)cc1-c1cc(Cl)ccc1-n1cc(Cl)nn1` are 2.06 µM and 0.186 µM.
The corresponding values for `COC(=O)c1cccc(-n2cc(Cn3cc(OC)c(-c4cc(Cl)ccc4-n4cc(Cl)nn4)cc3=O)nn2)c1` are 1.06 µM and 0.519 µM.
On to `CC[C@@H](C(=O)Nc1ccc(C(N)=O)c(F)c1)n1cc(OC)c(-c2cc(Cl)ccc2-n2cc(C(F)(F)F)nn2)cc1=O`, for which the IC50 was found to be 6.27 µM in test [7], 4.05 µM in test [2] and 7.21 µM in test [3]. Further, the EC1.5 in test [4] is 0.71 µM. In addition, the EC2 in test [6] was above 100 µM.
Turning to `CCC(c1cn(-c2cccc(C(=O)OC)c2)nn1)n1cc(OC)c(-c2cc(Cl)ccc2-n2cc(Cl)nn2)cc1=O` (centres undefined), the IC50 in test [1] worked out at 2.14 µM; in test [5] it was 1.6 µM.
In the case of `CCC(c1cn(-c2ccccc2)nn1)n1cc(OC)c(-c2cc(Cl)ccc2-n2cc(Cl)nn2)cc1=O` (centres undefined), the IC50 in test [1] stood at 2.59 µM; in test [5] it was 0.535 µM.
As to `CC[C@H](c1cn(-c2ccc(C(=O)OC)cc2)nn1)n1cc(OC)c(-c2cc(Cl)ccc2-n2cc(Cl)nn2)cc1=O`, the half-inhibitory concentration (IC50) in test [1] was 7.85 µM; in test [2], above 100 µM; in test [3], 101 µM; in test [5], 1.1 µM. Moreover, the EC1.5 in test [4] is 392 µM. Moreover, the EC2 in test [6] is above 100 µM.
With `CCC(c1cn(-c2cccc(C(=O)O)c2)nn1)n1cc(OC)c(-c2cc(Cl)ccc2-n2cc(Cl)nn2)cc1=O` (centres undefined), the IC50 stood at 0.822 µM in test [1] and 0.259 µM in test [5].
The corresponding values for `COC(=O)c1ccc(-n2cc(Cn3cc(OC)c(-c4cc(Cl)ccc4-n4cc(Cl)nn4)cc3=O)nn2)cc1` are 1.97 µM and 0.161 µM.
With `CCC(c1cn(-c2cnn(C)c2)nn1)n1cnc(-c2cc(Cl)ccc2-n2cc(Cl)nn2)cc1=O` (centres undefined), the half-maximal inhibitory concentration (IC50) in test [1] stood at 87.2 µM; in test [5] it was 14.6 µM.
